Results on 3 molecules are retold here after patent US20230406849A1, “KRAS INHIBITORS FOR TREATMENT OF CANCERS” (TYLIGAND BIOSCIENCE (SHANGHAI) LIMITED, priority 2020, published 2023).

Read-outs that look alike come from different tables or passages of the source. Where only a bound is given, the exact number is not on record here.

Series [1] in a line: Pharmacokinetics in rats, IV and oral. The class given is in vivo, SD rats. The following applies: rat. On the procedure: 2.2 Pharmacokinetic Properties of Representative Examples of the Present Disclosure
[Test materials] Same as above 2.1.
[Experimental procedure]: IV injection administration was performed on rats according to the similar procedure described in 2.1 above, with a drug concentration of 3 mg/mL, and the drug preparation, administration and sample collection were performed by reference to 2.1 above. For the oral administration group, the drug was formulated to a 3 mg/mL suspension in 0.5% methylcellulose MC-400cp (Aladdin, M112866), and gavage administered in 10 mL/kg. Blood samples were collected at the time points of 0.25, 0.5, 1, 2, 4, 6, 8 and 24 hours after administration via external jugular vein puncture, centrifuged at low temperature for 20 minutes, and the plasma samples were collected and stored at −80° C. until analysis.
The subsequent sample analysis and data processing are similar to those described in 2.1.

Another series concerns A549 (KRasG12S). Nature of the series: KRas mutant cell proliferation, CellTiter-Glo (CTG). The class given is cell-based. The following applies: Homo sapiens, A549, KRas G12S, lung cancer, 72 h; for inhibition at up to 10 µM: top concentration 10 μM, read-out: Maximum inhibition %. An excerpt:
(§1) In this assay, the CellTiter-Glo (CTG) kit of Promega was used to evaluate the anti-proliferation activities of the compounds of the present disclosure on 12 KRas mutant tumor cell lines.
(§2) [Test materials]: RPMI1640 medium (Hyclone, Cat #SH30809.01); fetal bovine serum (FBS) (Gibco, Cat #10099-141); phosphate buffer PBS (Solarbio, Cat #P1020-500); DMSO (Sigma, Cat #D8418-1L); detection kit CTG (Promega, Cat #G7573); 96-well cell culture plate (Thermo, Cat #3100 Series); Vibrator (QILINBEIER, Cat #QB-9001); Incubator (Thermo Scientific, Cat #Model 3100 series); microscope (OLYMPUS, Cat #CKX41SF); multi-function microplate reader (BMG LABTECH, Cat #CLARIOstar® Plus); biological safety cabinet (Thermo, Cat #Model 1300 Series A2). All cell lines used in the following assay were purchased from KYinno Biotechnology Co., Ltd.
(§3) Each of the above cell lines was cultured in the indicated complete medium at 37° C., 5% CO2, and the cells in the logarithmic growth phase were harvested and counted using a platelet counter. The cell viability was detected by the trypan blue exclusion method to ensure that the cell viability was above 90%. Cell density was adjusted using complete medium, and then inoculated into 96-well cell culture plates, at 90 μL and a total of 3000 cells per well. The cells in the 96-well plate were cultured at 37° C. and 5% CO2.
(§4) The test compound solution in culture medium was prepared, the top concentration was 10 μM, serially diluted at a dilution factor of 3.16 to afford 9 concentrations. 10 μL of each diluted compound solution was transferred to the corresponding experimental well of the 96-well cell plate and each concentration was set three replicate wells. The cells in the 96-well plate that had been dosed were incubated at 37° C. and 5% CO2 for 72 hours, and then CTG analysis was performed.
(§5) The CTG reagent was melted, and the cell plate was moved to room temperature to equilibrate for 30 minutes. 100 μL of CTG solution was added to each well, and shaken on an orbital shaker for 5 minutes to fully lyse the cells. The plate was kept at room temperature for 20 minutes to stabilize the luminescence signal, and the luminescence value of each well was scanned and the data was collected. GraphPad Prism 7.0 software was used to analyze the data, and the nonlinear Sigmoidal regression was used to fit the data to obtain a dose-response curve. The relative and absolute IC50 values and the maximum inhibition rate were calculated according to conventional methods well known to those skilled in the art.
(§6) Inhibition rate %=[1−(LumDrug to be tested−LumCulture medium control)/(LUMCell control−LumCulture medium control)]×100%

A further series has as its system T84 (KRas-G13D). Described as above. It is filed as cell-based. The following applies: colon cancer, 72 h; for inhibition at up to 10 µM: top concentration 10 μM, read-out: Maximum inhibition %.
Text: as §1, §2, §3, §4, §5, §6

The test system of a further series is BaF3-KRas-G12C-Y96C. Kind of series: Proliferation of KRas G12C inhibitor-resistant cell model, CTG. The class given is cell-based. The following applies: Adagrasib acquired-resistance model. As to the method: as §3
(§7) 10 μL of each diluted compound solution was transferred to the corresponding experimental well of the 96-well cell plate and each concentration was set three replicate wells. The cells in the 96-well plate that had been dosed were incubated at 37° C. and 5% CO2 for 72 hours, and then CTG analysis was performed.
as §5, §6
(§8) Acquired resistance is one of the key factors that affect the treatment efficacy of KRas G12C inhibitors.
(§9) All cell lines used in this assay were provided by KYinno Biotechnology Co., Ltd.

The subject of another series is BaF3-KRas-G12C-H95D. The series is described as above. The class given is cell-based. The following applies: Adagrasib acquired-resistance model. As to the method: as §3, §7, §5, §6, §8, §9
The subject of another series is BaF3-KRas-G12C-R68S. Described as above. The following applies: Adagrasib acquired-resistance model. The class given is cell-based. On the procedure:
as §3, §7, §5, §6, §8, §9

The subject of the next series is BaF3-KRas-G12C-H95Q. The description is as above. It is filed as cell-based. The following applies: Adagrasib acquired-resistance model. On the procedure:
as §3, §7, §5, §6, §8, §9

A further series concerns BaF3-KRas-G12C-Y96D. The series is described as above. The following applies: Adagrasib acquired-resistance model. The class given is cell-based. As to the method:
as §3, §7, §5, §6, §8, §9

Series [2] concerns human pancreatic cancer Mia PaCa-2 cells xenograft. Kind of series: Subcutaneous xenograft tumor model of Mia PaCa-2 cells in BALB/c nude mouse. The following applies: Mia PaCa-2 xenograft, BALB/c nude mice, gavage once a day; for TGI(%): Day 21. The class given is in vivo. As to the method: The in vivo efficacy of the representative compounds of the present disclosure in the subcutaneous xenograft tumor model of human pancreatic cancer Mia PaCa-2 cells was evaluated.
[Test materials]: BALB/c nude mice of 6-8 weeks, female, Zhejiang Vital River Laboratory Animal Technology Co., Ltd. Human pancreatic cancer Mia PaCa-2 cells (ATCC, Cat #: CRL-1420). Matrigel (Matrigel, Corning, Cat. No. 356234).
[Experimental procedure]: 0.2 mL (5×10^6) Mia PaCa-2 cells (plus Matrigel, volume ratio 1:1) were inoculated subcutaneously on the right back dorsal of each mouse. […] During the assay, tumor volumes and body weights were measured twice a week.
The tumor volume was calculated according to the following formula: V=0.5a×b^2, where a and b represent the long and short diameters of the tumor, respectively.

For the molecule `C=CC(=O)N1CCN(c2c(C#N)cnc3c(F)c(-c4ccc(F)c5sc(N)nc45)c(Cl)cc23)CC1` [Example 9, 4-(4-Acryloylpiperazin-1-yl)-7-(2-amino-7-fluorobenzo[d]thiazol-4-yl)-6-chloro-8-fluoroquinoline-3-carbonitrile], the AUC(0-inf) in series [1] (male, SD, plasma, IV, 3 mg/kg) turned out to be 3310 ng·h/mL; in series [1] (male, SD, plasma, PO, 30 mg/kg), 7870 ng·h/mL. Further, the AUC(0-t) in series [1] (male, SD, plasma, IV, 3 mg/kg) turned out to be 3310 ng·h/mL; in series [1] (male, SD, plasma, PO, 30 mg/kg), 7780 ng·h/mL. The Vd in series [1] (male, SD, plasma, IV, 3 mg/kg) worked out at 0.63 L/kg. Further, the clearance in [1] (male, SD, plasma, IV, 3 mg/kg) came out at 15.6 mL/min/kg. Moreover, in series [1] (male, SD, plasma, IV, 3 mg/kg), the half-life is 0.67 h. For the same molecule, the concentration in series [1] (male, SD, plasma, PO, 30 mg/kg) peaked (Cmax) at 2390 ng/mL. Further, in series [1] (male, SD, plasma, PO, 30 mg/kg), the time of peak concentration (Tmax) came to 1.33 h. In [1] (PO 30 mg/kg vs IV 3 mg/kg), this molecule registered an F of 23.8%. For the same molecule, the values for the inhibition at up to 10 µM with A549 (KRasG12S) and in the series with T84 (KRas-G13D) were 44.1% and 14.7%, respectively. Also, the IC50 in the series on A549 (KRasG12S) (read-out: Absolute IC50) is over 10000 nM; in the series with A549 (KRasG12S) (read-out: Relative IC50), over 10000 nM; in the series with T84 (KRas-G13D) (read-out: Absolute IC50) it was over 10000 nM; in the series on T84 (KRas-G13D) (read-out: Relative IC50), over 10000 nM; in the series on BaF3-KRas-G12C-Y96C it was 310 nM; in the series on BaF3-KRas-G12C-H95D, 100 nM. Further, the values for the IC50 with BaF3-KRas-G12C-R68S, with BaF3-KRas-G12C-H95Q and with BaF3-KRas-G12C-Y96D were 560 nM, 91 nM and 1290 nM, respectively. The “Tumor volume (mm^3) (Day 21)” value in [2] (3 mpk) came out at 665 mm^3; in series [2] (10 mpk), 246 mm^3; in [2] (30 mpk) it was 162 mm^3. The entries for the “TGI(%)” value in series [2] (3 mpk), in series [2] (10 mpk) and in [2] (30 mpk) were 50.4%, 89.8% and 97.7%, respectively.

Take `C=CC(=O)N1CCN(c2ncnc3c(F)c(-c4ccc(F)c5sc(N)nc45)c(Cl)cc23)CC1` [Ref. Comp. A, reference compound]: the values for the inhibition at up to 10 µM in the series on A549 (KRasG12S) and in the series with T84 (KRas-G13D) were 19.7% and 4.59%, respectively. Besides, the IC50 in the series on A549 (KRasG12S) (read-out: Absolute IC50) is over 10000 nM; in the series with A549 (KRasG12S) (read-out: Relative IC50), over 10000 nM; in the series on T84 (KRas-G13D) (read-out: Absolute IC50) it was over 10000 nM; in the series with T84 (KRas-G13D) (read-out: Relative IC50), over 10000 nM; in the series with BaF3-KRas-G12C-Y96C, 550 nM; in the series on BaF3-KRas-G12C-H95D, 150 nM. Besides, the half-maximal inhibitory concentration (IC50) in the series on BaF3-KRas-G12C-R68S worked out at 1790 nM; in the series with BaF3-KRas-G12C-H95Q it was 120 nM; in the series on BaF3-KRas-G12C-Y96D, 3240 nM.

With `C=CC(=O)N1CCN(c2nc(=O)n(-c3c(C)ccnc3C(C)C)c3nc(-c4c(O)cccc4F)c(F)cc23)[C@@H](C)C1` (atropisomer, axis not shown) [AMG510, reference compound], in [2] (10 mpk), the “Tumor volume (mm^3) (Day 21)” value is listed as 432 mm^3 and the “TGI(%)” value was determined as 72.3%.
